# Laboratory results as given in patent US12397031B2, “Lonicera japonica flower water extract-containing pharmaceutical composition for preventing or treating Helicobacter pylori infection” (GREEN CROSS WELLBEING CORPORATION, priority 2018, dated 2025).
# What was measured:
# Helicobacter pylori = experiment: Selective antibacterial effect on Helicobacter pylori versus Escherichia coli and Staphylococcus aureus; format: cell-based; conditions: under the same condition
# [1] = test system: Helicobacter pylori (ATCC43504) strain; experiment: Antibacterial activity on Helicobacter pylori, paper disc clear zone; format: cell-based; conditions: 20 μl on 6 mm paper disc, 72 hours, pure inhibition zone
# Method: A Helicobacter pylori (ATCC43504) strain was smeared in a Brucella Agar medium containing 10% horse serum, and cultured for 3 days in an incubator of 37° C. and 10% CO: conditions. […] The Examples and Comparative Examples were cultured for 72 hours in an incubator of 37° C. and 10% CO: conditions, and then diameters of generated clear zones were measured and diameters of pure inhibition zones removing perforated diameters were shown in Table 3.
structure (smiles),measurement,setting,value
"C=C[C@H]1[C@H](O[C@@H]2O[C@H](CO)[C@@H](O)[C@H](O)[C@H]2O)OC=C(C(=O)OC)[C@H]1CC(=O)O [Secoxyloganin, secoxyloganin]",selective antibacterial effect on Helicobacter pylori than the antibacterial effect on Escherichia coli and Staphylococcus aureus,Helicobacter pylori,≥ 20 times
same,Clear zone (mm),[1]; 0.1 mg/ml,5 mm
same,Clear zone (mm),[1]; 1 mg/ml,9 mm
same,Clear zone (mm),[1]; 10 mg/ml,13 mm
